Like-named read-outs stand apart in the source and are kept apart here.
Tested on: P388R cells
Assay: Potentiation of adriamycin activity and cell growth in P388 resistant cells (Table II)
Assay type: cell-based, murine
Settings: for activity at 5 µM / activity at 10 µM: Mus musculus; for Degree of ADR Potentiation in P388R: footnote a (drawing 3)
Description: The P388 murine leukemia cells used in obtaining the data set forth in Table I and Table II were obtained from Southern Research Institute (Birmingham, Ala.) and were cultured from ascites fluids of tumor-bearing DMA/2 mice and maintained in Fischer's medium supplemented with 10% horse serum, 10 μM 2-mercaptoethanol, and gentamycin (50 μg/mL). Cells were counted with a Model ZF Coulter Counter (Coulter Electronics, Inc., Hialeah, Fla.). Viability was determined by trypan blue exclusion. […] Cancer Inst.

[1] = P388, test compound at 5 μM, read-out: % of Control Cell Growth
[2] = P388, test compound at 10 μM, read-out: % of Control Cell Growth
[3] = test compound at 5 μM with adriamycin
[4] = test compound at 10 μM with adriamycin
[5] = P388, read-out: % of Control Cell Growth

| Compound | activity at 5 µM [1] [%] | activity at 10 µM [2] [%] | Degree of ADR Potentiation in P388R [3] | Degree of ADR Potentiation in P388R [4] | activity at 5 µM [5] [%] | activity at 10 µM [5] [%] |
| --- | --- | --- | --- | --- | --- | --- |
| CCCSc1ccccc1N1CCN(CCCCCn2c(=O)c3cc(OC)c(OC)cc3n(C)c2=O)CC1 [Example 16, 6,7-dimethoxy-1-methyl-3-[5-[4-[2-(propylthio)phenyl]-1-piperazinyl]pentyl]-2,4(1H,3H)-quinazolinedione] | 33 | 4.2 | 44.5 | – | – | – |
| CCCSc1ccccc1N1CCN(CCCCn2c(=O)[nH]c3ccc(Cl)cc3c2=O)CC1.Cl [Example 3, 6-chloro-3-[4-[4-[2-(propylthio)phenyl]-1-piperazinyl]butyl]-2,4-(1H,3H)quinazolinedione monohydrochloride] | 100 | 88 | 19.6 | 44.7 | – | – |
| Cl.O=c1[nH]c2ccccc2c(=O)n1CCCCN1CCN(c2cccc(Cl)c2Cl)CC1 [Example 4, 3-[4-[4-(2,3-dichlorophenyl)-1-piperazinyl]butyl]-2,4-(1H,3H)-quinazolinedione monohydrochloride] | – | – | 21.8 | 31.7 | 76 | 76 |
| CCSc1ccccc1N1CCN(CCCCn2c(=O)[nH]c3ccccc3c2=O)CC1.Cl [Example 5, 3-[4-[4-[2-(ethylthio)phenyl)-1-piperazinyl]butyl]-2,4-(1H,3H)-quinazolinedione monohydrochloride] | 79 | 78 | 19.6 | 46.6 | – | – |
| CCCCSc1ccccc1N1CCN(CCCCn2c(=O)[nH]c3ccccc3c2=O)CC1.Cl [Example 8, 3-[4-[4-[2-(butylthio)phenyl]-1-piperazinyl]butyl]-2,4-(1H,3H)-quinazolinedione monohydrochloride] | 88 | 86 | 25.0 | 48.4 | – | – |
| CCCSc1ccccc1N1CCN(CCCCn2c(=O)c3cc(OC)c(OC)cc3n(C)c2=O)CC1 [Example 15, 6,7-dimethoxy-1-methyl-3-[4-[4-[2-(propylthio)phenyl]-1-piperazinyl]butyl]-2,4(1H,3H)-quinazolinedione] | 46 | 2.6 | 21.2 | – | – | – |
| CC(C)Sc1ccccc1N1CCN(CCCCn2c(=O)[nH]c3ccccc3c2=O)CC1.Cl [Example 6, 3-[4-[4-[2-[(1-methylethyl)thio]phenyl]-1-piperazinyl]butyl]-2,4-(1H,3H)-quinazolinedione monohydrochloride] | 91 | 59 | 24.2 | 52.2 | – | – |
| CCCSc1ccccc1N1CCN(CCCCn2c(=O)[nH]c3c(OC)cccc3c2=O)CC1 [Example 17, 8-methoxy-3-[4-[4-[2-(propylthio)phenyl]-1-piperazinyl]butyl]-2,4-(1H,3H)quinazolinedione] | 83 | 39 | 3.4 | 67.2 | – | – |
| CCCSc1ccccc1N1CCN(CCCCn2c(=O)[nH]c3cc(Cl)ccc3c2=O)CC1.Cl [Example 9, 7-chloro-3-[4-[4-[2-(propylthio)phenyl]-1-piperazinyl]butyl]2,4(1H,3H)-quinazolinedione monohydrochloride] | 100 | 85 | 22.2 | 35.4 | – | – |
| CCCSc1ccccc1N1CCN(CCCCCn2c(=O)[nH]c3ccccc3c2=O)CC1 [Example 19, 3-[5-[4-[2-(propylthio)phenyl]-1-piperazinyl]pentyl]-2,4-(1H,3H)-quinazolinedione] | 100 | 68 | 36.7 | 66.9 | – | – |

Reference: patent US5160727A, “Tumor cell sensitization method using quinazolinedione derivatives” (priority 1990, dated 1992)
